Results as given in the NIST ThermoML archive (doi:10.1021/je900048r).

Assay: xn = mol fraction of the nth substance listed
Conditions: Liquid, Other PVT measurement

CCCCn1cc[n+](C)c1.F[B-](F)(F)F [1-butyl-3-methylimidazolium tetrafluoroborate] + c1ccccc1
mass density [kg/m3]
Conditions	x1 = 0.5	x1 = 0.5999	x1 = 0.7001	x1 = 0.8	x1 = 0.8999	x1 = 1
313.15 K, 200 kPa	1111	1129	1145	1158	1172	1185
313.15 K, 600 kPa	1111	1130	1145	1158	1172	1186
313.15 K, 1000 kPa	1111	1130	1146	1158	1173	1186
313.15 K, 1400 kPa	1111	1131	1146	1159	1173	1186
313.15 K, 1800 kPa	1111	1131	1147	1159	1173	1187
313.15 K, 2000 kPa	1111	1132	1147	1159	1173	1187
353.15 K, 200 kPa	1082	1102	1118	1131	1145	1159
353.15 K, 600 kPa	1082	1103	1118	1131	1145	1160
353.15 K, 1000 kPa	1083	1103	1118	1131	1145	1160
353.15 K, 1400 kPa	1083	1103	1118	1132	1146	1160
353.15 K, 1800 kPa	1084	1104	1119	1132	1146	1161
353.15 K, 2000 kPa	1084	1104	1119	1132	1146	1161
393.15 K, 600 kPa	1055	1076	1092	1106	1120	1135
393.15 K, 1000 kPa	1055	1076	1092	1106	1120	1135
393.15 K, 1400 kPa	1055	1077	1092	1106	1120	1135
393.15 K, 1800 kPa	1056	1077	1092	1106	1121	1136
393.15 K, 2000 kPa	1056	1078	1093	1106	1121	1136
433.15 K, 1400 kPa	1028	1050	1066	1080	1096	1112
433.15 K, 1800 kPa	1029	1050	1067	1081	1096	1113
433.15 K, 2000 kPa	1029	1051	1067	1081	1096	1113
